Measured values: ChEMBL document CHEMBL1133293, “Synthesis of a water-soluble prodrug of entacapone” (Bioorg Med Chem Lett, 2000)
Values after ≈ are worked out from the molar mass of the structure shown.

Columns and labels:
[1] = Half life period in rabbit liver homogenate; format: ADME, tissue-based, Oryctolagus cuniculus
[2] = Solubility at pH 7.4; format: physicochemical; conditions: buffer
[3] = Half life period t pH 7.4 at 37 degree Centigrade; format: ADME
[4] = Solubility at pH 1.2; format: physicochemical; conditions: buffer

Compound | half-life [1] | solubility [2] | half-life [3] | solubility [4]
CCN(CC)C(=O)C(C#N)=Cc1cc(O)c(O)c([N+](=O)[O-])c1 | 58 min |  |  | 
CCN(CC)C(=O)/C(C#N)=C/c1cc(OP(=O)([O-])[O-])c([O-])c([N+](=O)[O-])c1.[Na+].[Na+].[Na+] |  | 30 mg/mL | 92.8 days | 30 mg/mL
CCN(CC)C(=O)/C(C#N)=C/c1cc(O)c(O)c([N+](=O)[O-])c1 [ENTACAPONE] | 58 min | 1.75 mg/mL (≈ 5730 µM) |  | 0.017 mg/mL (≈ 55.7 µM)
